Experimental findings from US11466016B2, “Pharmaceutical compounds” (priority 2018, dated 2022) are described below.

The structures appear in SMILES notation. Where a name gives a salt, the structure may show the parent alone.

Chain of SHP2 (Q06124 whole entry): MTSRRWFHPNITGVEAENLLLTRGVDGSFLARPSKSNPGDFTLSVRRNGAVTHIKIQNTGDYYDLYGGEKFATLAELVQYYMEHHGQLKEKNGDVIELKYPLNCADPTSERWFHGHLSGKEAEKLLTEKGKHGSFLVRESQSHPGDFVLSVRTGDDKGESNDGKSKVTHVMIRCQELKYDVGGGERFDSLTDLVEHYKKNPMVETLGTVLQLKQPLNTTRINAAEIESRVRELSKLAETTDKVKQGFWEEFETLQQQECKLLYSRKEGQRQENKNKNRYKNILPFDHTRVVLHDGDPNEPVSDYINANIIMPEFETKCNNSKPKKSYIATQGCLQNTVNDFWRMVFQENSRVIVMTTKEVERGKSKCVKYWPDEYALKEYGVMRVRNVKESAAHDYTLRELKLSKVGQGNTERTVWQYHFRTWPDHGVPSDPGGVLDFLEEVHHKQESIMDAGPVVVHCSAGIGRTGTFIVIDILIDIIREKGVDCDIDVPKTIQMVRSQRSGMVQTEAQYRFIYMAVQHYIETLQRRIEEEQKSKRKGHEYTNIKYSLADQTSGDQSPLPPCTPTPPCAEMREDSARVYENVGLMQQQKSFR

The first assay concerns the target SHP2 (Homo sapiens (Human), UniProt Q06124). Kind of assay: SHP2 Biochemical Assay (DiFMUP conversion, pIRS1 activating peptide).
Details: not given
With `CN1Cc2c(ccc(-c3c[nH]c4nc(N5CC[C@H](N)[C@H](F)C5)cnc34)c2Cl)C1=O` [Example 72, 5-{3-[(3R,4S)-4-amino-3-fluoropiperidin-1-yl]-5H-pyrrolo[2,3-b]pyrazin-7-yl}-4-chloro-2-methyl-2,3-dihydro-1H-isoindol-1-one, hydrochloride salt], the “SHP2 (percent at stated concentration)” value was 50%@0.30 uM. The molecule `Cn1cc2c(Cl)c(-c3c[nH]c4nc(N5[C@@H]6CC[C@H]5[C@H](F)[C@H](N)C6)cnc34)ccc2n1` (racemic) [Example 12, rac-(1S,2R,3R,5R)-8-[7-(4-chloro-2-methyl-2H-indazol-5-yl)-5H-pyrrolo[2,3-b]pyrazin-3-yl]-2-fluoro-8-azabicyclo[3.2.1]octan-3-amine] came in with an IC50 of 15 nM.

For the molecule `CN(C)c1cnc2ccc(-c3n[nH]c4nc(N5[C@@H]6CC[C@H]5[C@@H](F)[C@@H](N)C6)c(CO)nc34)c(Cl)c2n1` [Example 130, {6-[(1S,2S,3S,5R)-3-amino-2-fluoro-8-azabicyclo[3.2.1]octan-8-yl]-3-[5-chloro-3-(dimethylamino)quinoxalin-6-yl]-1H-pyrazolo[3,4-b]pyrazin-5-yl}methanol], the 50% inhibitory concentration (IC50) worked out at 9.5 nM. Consider `Cc1nc2ccc(-c3c[nH]c4nc(N5[C@@H]6CC[C@H]5C[C@@H](N)C6)cnc34)c(Cl)c2c(=O)n1C` [Example 52, 6-{3-[endo-3-amino-8-azabicyclo[3.2.1]octan-8-yl]-5H-pyrrolo[2,3-b]pyrazin-7-yl}-5-chloro-2,3-dimethyl-3,4-dihydroquinazolin-4-one, methanesulfonic acid salt], for which half-maximal inhibition (IC50) required 13 nM. The same measure, in the same setting: the same measure for `Cn1cnc2ccc(-c3c[nH]c4nc(N5[C@@H]6CC[C@H]5[C@@H](F)[C@@H](N)C6)cnc34)c(Cl)c2c1=O` [Example 77, 6-{3-[(1S,2S,3S,5R)-3-amino-2-fluoro-8-azabicyclo[3.2.1]octan-8-yl]-5H-pyrrolo[2,3-b]pyrazin-7-yl}-5-chloro-3-methyl-3,4-dihydroquinazolin-4-one]: 18 nM. `Cn1nc2ccc(-c3c[nH]c4nc(N5[C@H]6CC[C@@H]5[C@@H](F)[C@@H](N)C6)cnc34)c(Cl)c2c1Cl` [Example 104, (1R,2S,3S,5S)-8-[7-(3,4-dichloro-2-methyl-2H-indazol-5-yl)-5H-pyrrolo[2,3-b]pyrazin-3-yl]-2-fluoro-8-azabicyclo[3.2.1]octan-3-amine, hydrochloride] showed a 50% inhibitory concentration (IC50) of 9.5 nM.

Regarding `Cc1nc2ccc(-c3n[nH]c4nc(N5[C@@H]6CC[C@H]5C[C@@H](N)C6)c(CO)nc34)c(Cl)c2s1` [Example 128, {6-[endo-3-amino-8-azabicyclo[3.2.1]octan-8-yl]-3-(7-chloro-2-methyl-1,3-benzothiazol-6-yl)-1H-pyrazolo[3,4-b]pyrazin-5-yl}methanol], the IC50 was 7.3 nM. `CN(C)c1cnc2ccc(-c3n[nH]c4nc(N5[C@@H]6CC[C@H]5C[C@@](C)(N)C6)c(CO)nc34)c(Cl)c2n1` [Example 131, {6-[endo-3-amino-3-methyl-8-azabicyclo[3.2.1]octan-8-yl]-3-[5-chloro-3-(dimethylamino)quinoxalin-6-yl]-1H-pyrazolo[3,4-b]pyrazin-5-yl}methanol] displayed a half-maximal inhibitory concentration (IC50) of 8.8 nM.

Still in this assay, the particulars now being: DiFMUP substrate, 0.25 μM pIRS1 peptide, 30 min pre-incubation; average where more than one data point; read-out: SHP2 (IC50).
Consider `Cn1cc2c(Cl)c(-c3c[nH]c4nc(N5[C@@H]6CC[C@H]5C[C@@H](N)C6)cnc34)ccc2n1` [Example 3, endo-8-[7-(4-chloro-2-methyl-2H-indazol-5-yl)-5H-pyrrolo[2,3-b]pyrazin-3-yl]-8-azabicyclo[3.2.1]octan-3-amine], for which the IC50 was 10 nM. Same read-out and setting: next, `N[C@H]1C[C@H]2CC[C@@H](C1)N2c1cnc2c(-c3ccc4ccc(=O)[nH]c4c3Cl)c[nH]c2n1` [Example 35, 7-{3-[endo-3-amino-8-azabicyclo[3.2.1]octan-8-yl]-5H-pyrrolo[2,3-b]pyrazin-7-yl}-8-chloro-1,2-dihydroquinolin-2-one, hydrochloride salt]: 190 nM; `CCn1nc2ccc(-c3n[nH]c4nc(N5[C@H]6CC[C@@H]5[C@@H](F)[C@@H](N)C6)c(C)nc34)c(Cl)c2c1C#N` [Example 127, 5-{6-[(1R,2S,3S,5S)-3-amino-2-fluoro-8-azabicyclo[3.2.1]octan-8-yl]-5-methyl-1H-pyrazolo[3,4-b]pyrazin-3-yl}-4-chloro-2-ethyl-2H-indazole-3-carbonitrile, hydrochloride salt]: 14 nM; `Cn1nc2ccc(-c3n[nH]c4nc(N5[C@@H]6CC[C@H]5C[C@@](C)(N)C6)c(CO)nc34)c(Cl)c2c1Cl` [Example 116, {6-[endo-3-amino-3-methyl-8-azabicyclo[3.2.1]octan-8-yl]-3-(3,4-dichloro-2-methyl-2H-indazol-5-yl)-1H-pyrazolo[3,4-b]pyrazin-5-yl}methanol]: 7.5 nM.

Consider `Cc1nc2c(-c3ccc4nn(C)c(C#N)c4c3Cl)n[nH]c2nc1N1[C@H]2CC[C@@H]1[C@@H](F)[C@@H](N)C2` [Example 124, 5-{6-[(1R,2S,3S,5S)-3-amino-2-fluoro-8-azabicyclo[3.2.1]octan-8-yl]-5-methyl-1H-pyrazolo[3,4-b]pyrazin-3-yl}-4-chloro-2-methyl-2H-indazole-3-carbonitrile], for which the half-inhibitory concentration (IC50) is 8.1 nM. Take `CCn1nc2ccc(-c3n[nH]c4nc(N5[C@H]6CC[C@@H]5[C@@H](F)[C@@H](N)C6)c(CO)nc34)c(Cl)c2c1Cl` [Example 103, {6-[(1R,2S,3S,5S)-3-amino-2-fluoro-8-azabicyclo[3.2.1]octan-8-yl]-3-(3,4-dichloro-2-ethyl-2H-indazol-5-yl)-1H-pyrazolo[3,4-b]pyrazin-5-yl}methanol]: the 50% inhibitory concentration (IC50) came to 8.9 nM. As for `Cc1cc(-c2c[nH]c3nc(N4[C@@H]5CC[C@H]4C[C@@H](N)C5)cnc23)c(Cl)c2cn(C)nc12` [Example 55, endo-8-[7-(4-chloro-2,7-dimethyl-2H-indazol-5-yl)-5H-pyrrolo[2,3-b]pyrazin-3-yl]-8-azabicyclo[3.2.1]octan-3-amine], the 50% inhibitory concentration (IC50) was 22 nM. Take `Cn1nc2ccc(-c3n[nH]c4nc(N5[C@@H]6CC[C@H]5C[C@@H](N)C6)c(CO)nc34)c(Cl)c2c1Cl` [Example 88, {6-[endo-3-amino-8-azabicyclo[3.2.1]octan-8-yl]-3-(3,4-dichloro-2-methyl-2H-indazol-5-yl)-1H-pyrazolo[3,4-b]pyrazin-5-yl}methanol]: the IC50 came to 7.1 nM. Same read-out and setting: next, `Cn1cc2c(Cl)c(-c3c[nH]c4nc(N5CCC6(CCN6)CC5)cnc34)ccc2n1` [Example 16, 7-[7-(4-chloro-2-methyl-2H-indazol-5-yl)-5H-pyrrolo[2,3-b]pyrazin-3-yl]-1,7-diazaspiro[3.5]nonane]: 24 nM. Turning to `COc1cnc2ccc(-c3n[nH]c4nc(N5[C@@H]6CC[C@H]5C[C@@](C)(N)C6)c(CO)nc34)c(Cl)c2n1` [Example 134, {6-[endo-3-amino-3-methyl-8-azabicyclo[3.2.1]octan-8-yl]-3-(5-chloro-3-methoxyquinoxalin-6-yl)-1H-pyrazolo[3,4-b]pyrazin-5-yl}methanol], the IC50 came out at 10 nM. As for `COc1cnc2ccc(-c3n[nH]c4nc(N5[C@@H]6CC[C@H]5CNC6)c(CO)nc34)c(Cl)c2n1` [Example 112, [3-(5-Chloro-3-methoxyquinoxalin-6-yl)-6-{3,8-diazabicyclo[3.2.1]octan-8-yl}-1H-pyrazolo[3,4-b]pyrazin-5-yl]methanol], the IC50 was found to be 12 nM. Consider `Cc1nc2c(-c3ccc4ncc(N(C)C)nc4c3Cl)n[nH]c2nc1N1[C@@H]2CC[C@H]1C[C@@H](N)C2` [Example 136, 7-{6-[endo-3-amino-8-azabicyclo[3.2.1]octan-8-yl]-5-methyl-1H-pyrazolo[3,4-b]pyrazin-3-yl}-8-chloro-N,N-dimethylquinoxalin-2-amine], for which the IC50 was 9 nM. Turning to `CC(C)(C)NC(=O)Cn1cc2c(Cl)c(-c3c[nH]c4nc(N5[C@@H]6CC[C@H]5C[C@@H](N)C6)cnc34)ccc2n1` [Example 60, 2-(5-{3-[endo-3-amino-8-azabicyclo[3.2.1]octan-8-yl]-5H-pyrrolo[2,3-b]pyrazin-7-yl}-4-chloro-2H-indazol-2-yl)-N-tert-butylacetamide], the IC50 amounted to 12 nM. For the molecule `Cc1nc2c(-c3ccc4nn(C)cc4c3Cl)n[nH]c2nc1N1C2CCCC1CNC2` [Example 91, 4-Chloro-5-(6-{3,9-diazabicyclo[3.3.1]nonan-9-yl}-5-methyl-1H-pyrazolo[3,4-b]pyrazin-3-yl)-2-methyl-2H-indazole, hydrochloride salt], the half-maximal inhibitory concentration (IC50) came to 22 nM.

`COc1cnc2ccc(-c3n[nH]c4nc(N5[C@@H]6CC[C@H]5C[C@@H](N)C6)c(C)nc34)c(Cl)c2n1` [Example 135, endo-8-[3-(5-chloro-3-methoxyquinoxalin-6-yl)-5-methyl-1H-pyrazolo[3,4-b]pyrazin-6-yl]-8-azabicyclo[3.2.1]octan-3-amine]: the IC50 came to 16 nM. Take `N[C@H]1C[C@H]2CC[C@@H](C1)N2c1cnc2c(-c3ccc4c(c3Cl)C(F)(F)C(=O)N4)c[nH]c2n1` [Example 66, 5-{3-[endo-3-amino-8-azabicyclo[3.2.1]octan-8-yl]-5H-pyrrolo[2,3-b]pyrazin-7-yl}-4-chloro-3,3-difluoro-2,3-dihydro-1H-indol-2-one, dihydrochloride salt]: the half-maximal inhibitory concentration (IC50) amounted to 4.4 nM. Turning to `CC(C)n1nc2ccc(-c3n[nH]c4nc(N5[C@H]6CC[C@@H]5[C@@H](F)[C@@H](N)C6)c(CO)nc34)c(Cl)c2c1C#N` [Example 149, 5-{6-[(1R,2S,3S,5S)-3-amino-2-fluoro-8-azabicyclo[3.2.1]octan-8-yl]-5-(hydroxymethyl)-1H-pyrazolo[3,4-b]pyrazin-3-yl}-4-chloro-2-(propan-2-yl)-2H-indazole-3-carbonitrile], the IC50 came out at 14 nM. As for `Cc1nc2c(-c3ccc4nc(CO)sc4c3Cl)n[nH]c2nc1N1[C@H]2CC[C@@H]1[C@@H](F)[C@@H](N)C2` [Example 132, (6-{6-[(1R,2S,3S,5S)-3-amino-2-fluoro-8-azabicyclo[3.2.1]octan-8-yl]-5-methyl-1H-pyrazolo[3,4-b]pyrazin-3-yl}-7-chloro-1,3-benzothiazol-2-yl)methanol, hydrochloride], the IC50 was 11 nM.
